Measurements as given in patent US12030875B2, “EIF4E inhibitors and uses thereof” (PIC Therapeutics, Inc., priority 2018, dated 2024).

Target: T1, Human eIF4E (Homo sapiens, UniProt P06730)
T1 construct: Human eIF4E (aa 28-217) with a C-terminal His-tag; made in house
Assay: Human eIF4E/4G2 binding assay (TR-FRET)
Settings: eIF4E (aa 28-217) with biotin labeled 4G2 peptide
How it was run: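 His-tagged human eIF4E (aa 28-217), refolded from E. coli inclusion bodies, at 82.5 nM working stock; compounds in 10-point 2-fold DMSO series, preincubated 15 min at RT in 50 mM NaPi pH 6.5, 50 mM KCl, 1 mM DTT. Biotin-4G2 peptide added, 15 min, then Eu-streptavidin/APC-anti-His, 20 min; normalized 665/615 nm TR-FRET signal; IC50 by curve fit.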

T1 sequence (P06730 28-217): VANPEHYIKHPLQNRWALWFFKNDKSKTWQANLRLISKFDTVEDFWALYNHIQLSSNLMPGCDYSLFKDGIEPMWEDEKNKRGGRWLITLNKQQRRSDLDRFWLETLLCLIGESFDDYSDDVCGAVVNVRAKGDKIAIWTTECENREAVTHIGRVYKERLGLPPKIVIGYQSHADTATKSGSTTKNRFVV

SMILES	IC50 [µM]
O=C(O)C1CCCN(c2nc(-c3ccc(-c4ccc(F)cc4)cc3)cs2)C1 (stereo not drawn) [Compound I-105]	5 to 25
O=C(O)CC1CCCN1c1nc(-c2ccc(-c3cnco3)cc2)c(-c2cccc3[nH]ccc23)s1 (stereo not drawn) [Compound I-39]	> 25
O=C(O)C1(CNc2nc(-c3ccc(Oc4ccccc4)cc3)c(-c3cccc4[nH]ccc34)s2)CC1 [Compound I-199]	5 to 25
O=C(O)C1CN(c2nc(-c3ccc(Oc4ccccc4)cc3)c(-c3ccccc3)s2)C1 [Compound I-158]	< 5
O=C(O)C1CCN(c2nc(-c3ccc(Oc4ccccc4)cc3)c(-c3ccccc3)s2)CC1 [Compound I-209]	< 5
CC(C)[C@H](CC(=O)O)Nc1nc(-c2ccc(-c3ccc(F)cc3)cc2)c(Br)s1 [Compound I-222]	< 5
O=C(O)C1CCN(c2nc(-c3ccc(-c4ccc(F)cc4)cc3)c(-c3cccc4[nH]ccc34)s2)CC1 [Compound I-139]	5 to 25
CC(C)(CNc1nc(-c2ccc(-c3cnco3)cc2)c(-c2cccc3[nH]ccc23)s1)C(=O)O [Compound I-8]	> 25
O=C(O)C1CC(CNc2nc(-c3ccc(-c4ccc(F)cc4)cc3)c(-c3cncnc3)s2)C1 (stereo not drawn) [Compound I-129]	> 25
O=C(O)C1CC(CNc2nc(-c3ccc(-c4ccc(F)cc4)cc3)c(-c3cccnc3)s2)C1 (stereo not drawn) [Compound I-130]	> 25
O=C(O)C1CC(CNc2nc(-c3ccc(Oc4ccccc4)cc3)c(-c3ccccc3)s2)C1 (stereo not drawn) [Compound I-201]	< 5
O=C(O)C1CC(CNc2nc(-c3ccc(Oc4ccccc4)cc3)cs2)C1 (stereo not drawn) [Compound I-200]	> 25
CCCC(CNc1nc(-c2ccc(Oc3ccccc3)cc2)c(-c2ccccc2)s1)C(=O)O (stereo not drawn) [Compound I-168]	< 5
O=C(O)C1CCCN(c2nc(-c3ccc(-c4cnco4)cc3)c(-c3cncnc3)s2)C1 (stereo not drawn) [Compound I-32]	> 25
O=C(O)[C@@H]1CCCN(c2nc(-c3ccc(Oc4ccccc4)cc3)c(-c3ccccc3)s2)C1 [Compound I-227]	< 5
O=C(O)C1CN(c2nc(-c3ccc(Oc4ccccc4)cc3)c(-c3cccnc3)s2)CCO1 (stereo not drawn) [Compound I-215]	> 25
CC1(C(=O)O)CCCN(c2nc(-c3ccc(Oc4ccccc4)cc3)c(-c3cccnc3)s2)C1 (stereo not drawn) [Compound I-219]	5 to 25
O=C(O)C1(CNc2nc(-c3ccc(-c4ccc(F)cc4)cc3)cs2)CC1 [Compound I-120]	> 25
CC1(C(=O)O)CN(c2nc(-c3ccc(Oc4ccccc4)cc3)c(-c3cccc4[nH]ccc34)s2)C1 [Compound I-166]	5 to 25
O=C(O)C[C@H]1CCCN1c1nc(-c2ccc(-c3ccc(F)cc3)cc2)c(-c2ccccc2)s1 [Compound I-225]	< 5
O=C(O)CC1CCCN1c1nc(-c2ccc(-c3cnco3)cc2)c(-c2ccccc2)s1 (stereo not drawn) [Compound I-36]	> 25
O=C(O)C1CC(CNc2nc(-c3ccc(Oc4ccccc4)cc3)c(-c3cccc4[nH]ccc34)s2)C1 (stereo not drawn) [Compound I-204]	5 to 25
O=C(O)C1CN(c2nc(-c3ccc(-c4cnco4)cc3)c(-c3cccc4[nH]ccc34)s2)C1 [Compound I-12]	> 25
O=C(O)C1CCN(c2nc(-c3ccc(Oc4ccccc4)cc3)c(-c3cccc4[nH]ccc34)s2)C1 (stereo not drawn) [Compound I-194]	5 to 25
CC1(C(=O)O)CN(c2nc(-c3ccc(Oc4ccccc4)cc3)c(-c3ccccc3)s2)C1 [Compound I-163]	5 to 25
O=C(O)C1CCN(c2nc(-c3ccc(Oc4ccccc4)cc3)c(-c3cccnc3)s2)CC1 [Compound I-211]	> 25
O=C(O)[C@@H]1CCCN(c2nc(-c3ccc(-c4ccc(F)cc4)cc3)c(-c3ccccc3)s2)C1 [Compound I-223]	< 5

SMILES	IC50 [µM]
O=C(O)C1CC(CNc2nc(-c3ccc(-c4ccc(F)cc4)cc3)c(Br)s2)C1 (stereo not drawn) [Compound I-127]	5 to 25
CC(C)C(CC(=O)O)Nc1nc(-c2ccc(-c3ccc(F)cc3)cc2)c(-c2cccnc2)s1 (stereo not drawn) [Compound I-68]	> 25
O=C(O)C1CC(CNc2nc(-c3ccc(-c4ccc(F)cc4)cc3)c(-c3cccc4[nH]ccc34)s2)C1 (stereo not drawn) [Compound I-131]	5 to 25
CC(C)(CNc1nc(-c2ccc(-c3ccc(F)cc3)cc2)c(-c2cccnc2)s1)C(=O)O [Compound I-74]	5 to 25
O=C(O)C1CN(c2nc(-c3ccc(-c4ccc(F)cc4)cc3)c(-c3ccccc3)s2)CCO1 (stereo not drawn) [Compound I-140]	< 5
CC(C)C(CC(=O)O)Nc1nc(-c2ccc(-c3ccc(F)cc3)cc2)cs1 (stereo not drawn) [Compound I-64]	5 to 25
CCCC(CNc1nc(-c2ccc(Oc3ccccc3)cc2)c(-c2cccc3[nH]ccc23)s1)C(=O)O (stereo not drawn) [Compound I-171]	5 to 25
CC(C)(CNc1nc(-c2ccc(Oc3ccccc3)cc2)c(-c2ccccc2)s1)C(=O)O [Compound I-154]	< 5
CCCC(CNc1nc(-c2ccc(Oc3ccccc3)cc2)cs1)C(=O)O (stereo not drawn) [Compound I-167]	> 25
CC(CNc1nc(-c2ccc(-c3ccc(F)cc3)cc2)c(-c2ccccc2)s1)C(=O)O (stereo not drawn) [Compound I-101]	5 to 25
O=C(O)C1CN(c2nc(-c3ccc(Oc4ccccc4)cc3)c(-c3cncnc3)s2)CCO1 (stereo not drawn) [Compound I-214]	> 25
O=C(O)C1CN(c2nc(-c3ccc(-c4ccc(F)cc4)cc3)c(-c3cccc4[nH]ccc34)s2)C1 [Compound I-80]	5 to 25
O=C(O)C1(CNc2nc(-c3ccc(-c4ccc(F)cc4)cc3)c(-c3cccnc3)s2)CC1 [Compound I-124]	> 25
CC1(C(=O)O)CCCN(c2nc(-c3ccc(-c4cnco4)cc3)c(-c3cncnc3)s2)C1 (stereo not drawn) [Compound I-61]	> 25
CC(C)(CNc1nc(-c2ccc(Oc3ccccc3)cc2)cs1)C(=O)O [Compound I-153]	> 25
O=C(O)C1CCN(c2nc(-c3ccc(-c4cnco4)cc3)c(-c3cccc4[nH]ccc34)s2)C1 (stereo not drawn) [Compound I-43]	> 25
O=C(O)C1CCCN(c2nc(-c3ccc(-c4ccc(F)cc4)cc3)c(-c3cccnc3)s2)C1 (stereo not drawn) [Compound I-108]	5 to 25
CC(CC(=O)O)Nc1nc(-c2ccc(Oc3ccccc3)cc2)c(-c2ccccc2)s1 (stereo not drawn) [Compound I-172]	5 to 25
O=C(O)C1(CNc2nc(-c3ccc(-c4cnco4)cc3)c(-c3cccnc3)s2)CC1 [Compound I-46]	> 25
O=C(O)C1CCCN(c2nc(-c3ccc(-c4cnco4)cc3)c(-c3cccc4[nH]ccc34)s2)C1 (stereo not drawn) [Compound I-34]	> 25
O=C(O)CC1CCCN1c1nc(-c2ccc(Oc3ccccc3)cc2)c(-c2cccnc2)s1 (stereo not drawn) [Compound I-188]	> 25
O=C(O)CC1CCCN1c1nc(-c2ccc(-c3ccc(F)cc3)nc2)c(-c2cncnc2)s1 (stereo not drawn) [Compound I-112]	> 25
O=C(O)C1CN(c2nc(-c3ccc(-c4cnco4)cc3)c(-c3cccnc3)s2)C1 [Compound I-11]	> 25
CC1(C(=O)O)CN(c2nc(-c3ccc(Oc4ccccc4)cc3)cs2)C1 [Compound I-162]	> 25
O=C(O)C1CN(c2nc(-c3ccc(-c4cnco4)cc3)c(-c3cccnc3)s2)CCO1 (stereo not drawn) [Compound I-58]	> 25
O=C(O)CC1CCCN1c1nc(-c2ccc(-c3cnco3)cc2)c(-c2cncnc2)s1 (stereo not drawn) [Compound I-37]	> 25
CC1(C(=O)O)CCCN(c2nc(-c3ccc(-c4ccc(F)cc4)cc3)c(-c3cccc4[nH]ccc34)s2)C1 (stereo not drawn) [Compound I-147]	< 5
